Key:
Experiment in all cases: KINOMEscan competition binding
Conditions in all cases: compound 10.0 µM
PRKCQ (human) = PRKCQ (human) (UniProt Q04759)
MAP3K13 (human) = MAP3K13 (human) (UniProt O43283)
PHKG1 (human) = PHKG1 (human) (UniProt Q16816)
TYRO3 (human) = TYRO3 (human) (UniProt Q06418)
GRK1 (human) = GRK1 (human) (UniProt Q15835)
ACVR1 (human) = ACVR1 (human) (UniProt Q04771)
PIP4K2B (human) = PIP4K2B (human) (UniProt P78356)
EPHA4 (human) = EPHA4 (human) (UniProt P54764)
DYRK1A (human) = DYRK1A (human) (UniProt Q13627)
SRMS (human) = SRMS (human) (UniProt Q9H3Y6)
FGR (human) = FGR (human) (UniProt P09769)
CASK (human) = CASK (human) (UniProt O14936)
NEK4 (human) = NEK4 (human) (UniProt P51957)
MAP4K1 (human) = MAP4K1 (human) (UniProt Q92918)
DMPK (human) = DMPK (human) (UniProt Q09013)
PRKX (human) = PRKX (human) (UniProt P51817)
FGFR1 (human) = FGFR1 (human) (UniProt P11362)
HUNK (human) = HUNK (human) (UniProt P57058)
RPS6KA1 KD1 (human) = RPS6KA1 KD1 (human) (UniProt Q15418)
ACVR1B (human) = ACVR1B (human) (UniProt P36896)
MYLK3 (human) = MYLK3 (human) (UniProt Q32MK0)
FYN (human) = FYN (human) (UniProt P06241)
PRKAA2 (human) = PRKAA2 (human) (UniProt P54646)
CIT (human) = CIT (human) (UniProt O14578)
PRKACA (human) = PRKACA (human) (UniProt P17612)
IKBKE (human) = IKBKE (human) (UniProt Q14164)
CDK7 (human) = CDK7 (human) (UniProt P50613)
[1] = system: LRRK2 (human), Q5S007 [G2019S]
PRKD1 (human) = PRKD1 (human) (UniProt Q15139)
AXL (human) = AXL (human) (UniProt P30530)

FYN (human), sequence (P06241 whole entry, looked up): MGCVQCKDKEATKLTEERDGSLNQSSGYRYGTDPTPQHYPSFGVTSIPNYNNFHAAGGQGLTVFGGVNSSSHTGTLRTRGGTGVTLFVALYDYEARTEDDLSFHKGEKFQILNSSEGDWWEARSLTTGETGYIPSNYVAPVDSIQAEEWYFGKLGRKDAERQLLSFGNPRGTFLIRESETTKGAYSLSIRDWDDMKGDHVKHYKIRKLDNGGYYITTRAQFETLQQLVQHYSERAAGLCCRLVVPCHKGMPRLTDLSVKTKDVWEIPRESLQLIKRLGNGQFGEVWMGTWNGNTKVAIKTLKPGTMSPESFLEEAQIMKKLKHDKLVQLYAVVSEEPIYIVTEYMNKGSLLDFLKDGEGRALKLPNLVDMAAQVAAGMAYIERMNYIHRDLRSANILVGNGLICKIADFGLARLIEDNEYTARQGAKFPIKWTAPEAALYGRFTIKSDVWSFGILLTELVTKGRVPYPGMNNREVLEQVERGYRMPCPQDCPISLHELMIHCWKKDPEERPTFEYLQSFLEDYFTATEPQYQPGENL
CASK (human), sequence (O14936 whole entry, looked up): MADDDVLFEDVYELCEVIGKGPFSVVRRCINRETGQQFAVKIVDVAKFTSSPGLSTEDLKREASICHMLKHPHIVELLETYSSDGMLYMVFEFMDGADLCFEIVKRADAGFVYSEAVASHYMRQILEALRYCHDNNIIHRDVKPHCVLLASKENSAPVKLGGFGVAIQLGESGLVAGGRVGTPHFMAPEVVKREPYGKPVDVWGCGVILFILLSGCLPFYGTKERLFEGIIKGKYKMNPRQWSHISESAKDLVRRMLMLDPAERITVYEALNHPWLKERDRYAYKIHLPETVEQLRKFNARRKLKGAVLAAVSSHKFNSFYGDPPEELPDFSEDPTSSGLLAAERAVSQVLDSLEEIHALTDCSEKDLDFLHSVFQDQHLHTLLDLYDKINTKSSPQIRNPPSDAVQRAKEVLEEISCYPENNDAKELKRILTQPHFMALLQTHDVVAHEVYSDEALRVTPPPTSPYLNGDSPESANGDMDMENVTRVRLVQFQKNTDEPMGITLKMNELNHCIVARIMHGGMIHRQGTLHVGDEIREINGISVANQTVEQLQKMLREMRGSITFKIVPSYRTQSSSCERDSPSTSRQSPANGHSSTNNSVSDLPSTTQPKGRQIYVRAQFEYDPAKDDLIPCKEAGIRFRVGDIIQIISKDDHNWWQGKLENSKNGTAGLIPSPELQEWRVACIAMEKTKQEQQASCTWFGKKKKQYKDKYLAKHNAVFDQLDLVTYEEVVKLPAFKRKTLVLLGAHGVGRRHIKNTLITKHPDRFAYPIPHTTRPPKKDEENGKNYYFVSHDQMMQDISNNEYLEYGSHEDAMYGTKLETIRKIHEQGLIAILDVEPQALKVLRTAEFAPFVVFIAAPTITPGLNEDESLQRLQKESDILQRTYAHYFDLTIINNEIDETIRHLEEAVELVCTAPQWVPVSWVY
RPS6KA1 KD1 (human), sequence (Q15418 whole entry, looked up): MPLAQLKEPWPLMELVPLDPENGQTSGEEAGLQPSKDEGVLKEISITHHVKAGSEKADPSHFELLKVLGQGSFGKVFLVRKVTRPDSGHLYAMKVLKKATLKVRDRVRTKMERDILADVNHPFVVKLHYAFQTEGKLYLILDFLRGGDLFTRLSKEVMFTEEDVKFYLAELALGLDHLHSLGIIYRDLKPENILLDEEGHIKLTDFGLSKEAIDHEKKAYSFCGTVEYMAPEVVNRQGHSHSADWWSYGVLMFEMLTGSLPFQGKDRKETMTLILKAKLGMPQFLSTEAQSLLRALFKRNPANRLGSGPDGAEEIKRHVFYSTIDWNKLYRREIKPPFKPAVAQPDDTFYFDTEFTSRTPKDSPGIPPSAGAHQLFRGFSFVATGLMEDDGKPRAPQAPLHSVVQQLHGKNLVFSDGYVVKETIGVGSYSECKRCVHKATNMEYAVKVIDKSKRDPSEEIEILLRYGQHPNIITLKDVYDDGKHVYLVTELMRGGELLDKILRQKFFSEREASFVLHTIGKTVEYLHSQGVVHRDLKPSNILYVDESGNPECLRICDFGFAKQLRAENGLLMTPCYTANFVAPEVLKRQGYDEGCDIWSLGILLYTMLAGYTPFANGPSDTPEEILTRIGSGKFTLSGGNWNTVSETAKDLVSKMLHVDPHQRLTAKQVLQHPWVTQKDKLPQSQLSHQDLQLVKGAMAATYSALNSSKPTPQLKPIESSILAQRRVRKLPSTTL
GRK1 (human), sequence (Q15835 whole entry, looked up): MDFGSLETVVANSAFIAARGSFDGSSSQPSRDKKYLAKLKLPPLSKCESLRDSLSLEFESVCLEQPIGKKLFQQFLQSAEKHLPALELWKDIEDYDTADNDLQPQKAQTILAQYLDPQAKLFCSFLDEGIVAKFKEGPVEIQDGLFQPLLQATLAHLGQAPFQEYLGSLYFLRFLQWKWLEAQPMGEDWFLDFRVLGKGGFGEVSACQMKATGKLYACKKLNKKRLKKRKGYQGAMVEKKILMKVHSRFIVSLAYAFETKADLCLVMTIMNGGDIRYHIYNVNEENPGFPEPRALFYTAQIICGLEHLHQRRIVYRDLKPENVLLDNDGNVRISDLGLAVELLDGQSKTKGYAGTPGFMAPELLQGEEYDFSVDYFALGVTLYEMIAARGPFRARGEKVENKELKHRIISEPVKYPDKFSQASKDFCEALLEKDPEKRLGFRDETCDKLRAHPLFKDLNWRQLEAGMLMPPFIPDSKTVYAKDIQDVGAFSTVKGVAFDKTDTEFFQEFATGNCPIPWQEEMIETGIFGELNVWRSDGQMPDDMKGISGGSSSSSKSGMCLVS
CDK7 (human), sequence (P50613 whole entry, looked up): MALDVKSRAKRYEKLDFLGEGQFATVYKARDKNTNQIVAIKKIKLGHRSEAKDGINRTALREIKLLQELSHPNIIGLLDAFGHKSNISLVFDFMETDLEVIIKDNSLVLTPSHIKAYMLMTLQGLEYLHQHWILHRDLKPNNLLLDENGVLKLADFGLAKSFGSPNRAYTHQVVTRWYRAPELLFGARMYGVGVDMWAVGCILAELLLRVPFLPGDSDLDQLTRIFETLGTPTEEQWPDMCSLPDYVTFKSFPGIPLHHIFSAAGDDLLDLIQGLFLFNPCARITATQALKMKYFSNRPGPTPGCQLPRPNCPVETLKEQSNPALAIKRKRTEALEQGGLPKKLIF
HUNK (human), sequence (P57058 whole entry, looked up): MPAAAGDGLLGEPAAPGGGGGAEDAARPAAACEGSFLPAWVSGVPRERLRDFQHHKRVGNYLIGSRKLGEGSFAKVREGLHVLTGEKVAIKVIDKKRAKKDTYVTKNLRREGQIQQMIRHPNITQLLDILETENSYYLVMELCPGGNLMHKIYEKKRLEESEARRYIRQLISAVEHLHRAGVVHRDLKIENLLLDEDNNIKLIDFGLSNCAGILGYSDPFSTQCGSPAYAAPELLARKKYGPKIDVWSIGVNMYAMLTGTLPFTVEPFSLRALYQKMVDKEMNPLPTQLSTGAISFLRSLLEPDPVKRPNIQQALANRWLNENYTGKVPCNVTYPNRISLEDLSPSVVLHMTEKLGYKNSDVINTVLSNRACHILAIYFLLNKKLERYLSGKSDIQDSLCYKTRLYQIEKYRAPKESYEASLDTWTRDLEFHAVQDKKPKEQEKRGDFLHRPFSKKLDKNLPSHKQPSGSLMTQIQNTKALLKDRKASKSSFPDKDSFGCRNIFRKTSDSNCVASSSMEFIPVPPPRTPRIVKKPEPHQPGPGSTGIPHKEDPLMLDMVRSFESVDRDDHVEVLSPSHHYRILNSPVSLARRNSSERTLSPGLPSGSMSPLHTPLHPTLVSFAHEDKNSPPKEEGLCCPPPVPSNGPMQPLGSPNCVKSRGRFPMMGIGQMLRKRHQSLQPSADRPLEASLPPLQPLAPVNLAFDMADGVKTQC
TYRO3 (human), sequence (Q06418 whole entry, looked up): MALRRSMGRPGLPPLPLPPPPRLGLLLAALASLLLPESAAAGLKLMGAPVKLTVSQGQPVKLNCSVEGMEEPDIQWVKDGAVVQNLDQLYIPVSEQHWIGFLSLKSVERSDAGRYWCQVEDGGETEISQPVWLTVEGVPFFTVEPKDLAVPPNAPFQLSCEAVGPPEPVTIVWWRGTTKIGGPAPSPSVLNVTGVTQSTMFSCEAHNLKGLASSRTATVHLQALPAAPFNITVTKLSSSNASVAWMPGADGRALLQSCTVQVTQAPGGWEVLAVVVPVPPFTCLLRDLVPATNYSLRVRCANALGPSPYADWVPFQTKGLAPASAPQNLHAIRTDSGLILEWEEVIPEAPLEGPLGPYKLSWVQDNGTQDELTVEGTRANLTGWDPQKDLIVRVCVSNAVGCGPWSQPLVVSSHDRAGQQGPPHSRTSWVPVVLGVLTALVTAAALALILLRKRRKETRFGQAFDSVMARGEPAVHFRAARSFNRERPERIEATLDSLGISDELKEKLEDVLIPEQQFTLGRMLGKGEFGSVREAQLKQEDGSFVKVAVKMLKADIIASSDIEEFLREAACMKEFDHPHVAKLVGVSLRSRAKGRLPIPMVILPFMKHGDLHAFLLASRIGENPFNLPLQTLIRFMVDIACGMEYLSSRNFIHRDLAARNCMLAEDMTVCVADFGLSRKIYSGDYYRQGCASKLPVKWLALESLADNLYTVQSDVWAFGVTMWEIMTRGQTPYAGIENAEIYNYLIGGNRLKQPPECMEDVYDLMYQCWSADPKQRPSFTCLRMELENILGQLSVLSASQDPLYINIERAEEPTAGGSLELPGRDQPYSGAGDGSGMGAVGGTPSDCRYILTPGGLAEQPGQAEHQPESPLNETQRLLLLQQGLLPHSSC

CC(=O)c1c(C)c2cnc(Nc3ccc(N4CCNCC4)cn3)nc2n(C2CCCC2)c1=O
kinase still bound, per cent of control (PRKCQ (human)): 68%
kinase still bound, per cent of control (MAP3K13 (human)): 82%
kinase still bound, per cent of control (PHKG1 (human)): 18%
kinase still bound, per cent of control (TYRO3 (human)): 93%
kinase still bound, per cent of control (GRK1 (human)): 89%
kinase still bound, per cent of control (ACVR1 (human)): 80%
kinase still bound, per cent of control (PIP4K2B (human)): 18%
kinase still bound, per cent of control (EPHA4 (human)): 94%
kinase still bound, per cent of control (DYRK1A (human)): 0.9%
kinase still bound, per cent of control (SRMS (human)): 49%
kinase still bound, per cent of control (FGR (human)): 71%
kinase still bound, per cent of control (CASK (human)): 60%
kinase still bound, per cent of control (NEK4 (human)): 20%
kinase still bound, per cent of control (MAP4K1 (human)): 47%
kinase still bound, per cent of control (DMPK (human)): 80%
kinase still bound, per cent of control (PRKX (human)): 90%
kinase still bound, per cent of control (FGFR1 (human)): 66%
kinase still bound, per cent of control (HUNK (human)): 77%
kinase still bound, per cent of control (RPS6KA1 KD1 (human)): 12%
kinase still bound, per cent of control (ACVR1B (human)): 96%
kinase still bound, per cent of control (MYLK3 (human)): 7.6%
kinase still bound, per cent of control (FYN (human)): 100%
kinase still bound, per cent of control (PRKAA2 (human)): 40%
kinase still bound, per cent of control (CIT (human)): 3.2%
kinase still bound, per cent of control (PRKACA (human)): 100%
kinase still bound, per cent of control (IKBKE (human)): 22%
kinase still bound, per cent of control (CDK7 (human)): 12%
kinase still bound, per cent of control [1]: 39%
kinase still bound, per cent of control (PRKD1 (human)): 0.85%
kinase still bound, per cent of control (AXL (human)): 16%

Source: the kinase profiling compilation of Christmann-Franck et al. (2016)
